Common to all, as to assay: relative viability (nuclei count vs DMSO), 5 days (fraction); higher = more cells survive
Compound in one assay: C1=CC=C2C(=C1)C=CC(=C2SSC3=C(C=CC4=CC=CC=C43)O)O [IPA-3]
The gist of the method: (§1)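 Lung cancer cell lines were seeded into 1536-well plates, kept overnight at 37 °C and pinned with five library-drug doses (not always all listed) spaced by √10. After 5 days, nuclei were Hoechst-stained, imaged at 4× and counted with MetaXpress. Viability is treated-well nuclei over vehicle-well nuclei, taken as a median across plates. Plates needed control CV below 25% and at least one doubling.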

Compound in the next assay: Cc1ccc(-n2nc(C(C)(C)C)cc2NC(=O)Nc2ccc(OCCN3CCOCC3)c3ccccc23)cc1 [Doramapimod]
The gist of the method: as §1

Compound in the next assay: Cn1c(Nc2ccc(C(F)(F)F)cc2)nc2cc(Oc3ccnc(-c4ncc(C(F)(F)F)[nH]4)c3)ccc21 [RAF265]
The gist of the method:
as §1

With NCI-H1944, the relative viability with IPA-3 (0.2 µM) stood at 1.05; with IPA-3 (0.6325 µM), 0.897; with IPA-3 (2 µM) it was 0.953; with IPA-3 (6.325 µM) it was 1.11; with IPA-3 (20 µM) it was 0.955; with Doramapimod (0.02 µM), 0.891. Besides, the relative viability came out at 0.994 in the assay with Doramapimod (0.06325 µM); 0.935 with Doramapimod (0.2 µM); 1.19 with Doramapimod (0.6325 µM); 0.878 with Doramapimod (2 µM); 1.06 with RAF265 (0.01 µM); 1.13 with RAF265 (0.03162 µM). Further, the relative viability stood at 0.972 in the assay with RAF265 (0.1 µM), 0.755 with RAF265 (0.3162 µM) and 0.667 with RAF265 (1 µM).
As for NCI-H1975, the relative viability in the assay with IPA-3 (0.2 µM) was 1.06; with IPA-3 (0.6325 µM), 0.924; in the assay with IPA-3 (2 µM), 0.957; with IPA-3 (6.325 µM) it was 1.1; in the assay with IPA-3 (20 µM), 0.993; in the assay with Doramapimod (0.02 µM), 1.03. The relative viability with Doramapimod (0.06325 µM) turned out to be 1.04; in the assay with Doramapimod (0.2 µM), 1.08; with Doramapimod (0.6325 µM) it was 1.05; in the assay with Doramapimod (2 µM), 1.04; with RAF265 (0.01 µM) it was 0.932; with RAF265 (0.03162 µM), 0.956. The relative viability in the assay with RAF265 (0.1 µM) was found to be 0.602; in the assay with RAF265 (0.3162 µM), 0.442; with RAF265 (1 µM), 0.406.
For NCI-H1993, the relative viability was 0.981 with IPA-3 (0.2 µM); 0.99 with IPA-3 (0.6325 µM); 0.873 in the assay with IPA-3 (2 µM); 0.97 in the assay with IPA-3 (6.325 µM); 1.01 with IPA-3 (20 µM); 1.06 in the assay with Doramapimod (0.02 µM). Besides, the relative viability stood at 0.941 in the assay with Doramapimod (0.06325 µM); 0.852 with Doramapimod (0.2 µM); 1.14 with Doramapimod (0.6325 µM); 0.864 in the assay with Doramapimod (2 µM); 1.04 with RAF265 (0.01 µM); 0.94 in the assay with RAF265 (0.03162 µM). Further, the relative viability stood at 1 in the assay with RAF265 (0.1 µM), 0.799 in the assay with RAF265 (0.3162 µM) and 0.794 in the assay with RAF265 (1 µM).
With NCI-H2009, the relative viability was determined as 1.17 in the assay with IPA-3 (0.2 µM); 0.969 with IPA-3 (0.6325 µM); 1.01 in the assay with IPA-3 (2 µM); 0.984 with IPA-3 (6.325 µM); 0.874 with IPA-3 (20 µM); 1.03 with Doramapimod (0.02 µM). Besides, the relative viability stood at 1.14 with Doramapimod (0.06325 µM); 1.11 with Doramapimod (0.2 µM); 1.17 with Doramapimod (0.6325 µM); 1.02 with Doramapimod (2 µM); 0.997 in the assay with RAF265 (0.01 µM); 0.922 with RAF265 (0.03162 µM). Further, the relative viability in the assay with RAF265 (0.1 µM) was determined as 0.907; in the assay with RAF265 (0.3162 µM) it was 0.866; with RAF265 (1 µM) it was 0.649.
On to NCI-H2023, for which the relative viability was determined as 1.37 with IPA-3 (0.2 µM); 0.899 with IPA-3 (0.6325 µM); 1.02 in the assay with IPA-3 (2 µM); 1.1 with IPA-3 (6.325 µM); 1.06 with IPA-3 (20 µM); 0.928 with Doramapimod (0.02 µM). In addition, the relative viability was 0.975 with Doramapimod (0.06325 µM); 0.998 with Doramapimod (0.2 µM); 1.19 in the assay with Doramapimod (0.6325 µM); 0.906 with Doramapimod (2 µM); 0.988 with RAF265 (0.01 µM); 0.988 with RAF265 (0.03162 µM). The relative viability is 1.13 with RAF265 (0.1 µM), 0.762 with RAF265 (0.3162 µM) and 0.808 with RAF265 (1 µM).
In the case of NCI-H2085, the relative viability stood at 1.07 with IPA-3 (0.2 µM); 0.957 with IPA-3 (0.6325 µM); 1.01 with IPA-3 (2 µM); 0.933 in the assay with IPA-3 (6.325 µM); 1.18 with IPA-3 (20 µM); 1.04 with Doramapimod (0.02 µM). Also, the relative viability with Doramapimod (0.06325 µM) worked out at 0.975; in the assay with Doramapimod (0.2 µM) it was 1.01; in the assay with Doramapimod (0.6325 µM) it was 1.01; with Doramapimod (2 µM), 0.966; with RAF265 (0.01 µM), 1.04; with RAF265 (0.03162 µM), 0.904. Moreover, the relative viability is 1.05 with RAF265 (0.1 µM), 0.915 with RAF265 (0.3162 µM) and 0.97 with RAF265 (1 µM).
For NCI-H2087, the relative viability with IPA-3 (0.2 µM) stood at 1.33; with IPA-3 (0.6325 µM), 0.87; with IPA-3 (2 µM), 0.89; with IPA-3 (6.325 µM) it was 0.935; with IPA-3 (20 µM), 1.13; with Doramapimod (0.02 µM), 1.05. The relative viability is 0.975 in the assay with Doramapimod (0.06325 µM); 1.14 with Doramapimod (0.2 µM); 1.01 with Doramapimod (0.6325 µM); 1 with Doramapimod (2 µM); 1.04 in the assay with RAF265 (0.01 µM); 0.796 in the assay with RAF265 (0.03162 µM). In addition, the relative viability amounted to 0.796 in the assay with RAF265 (0.1 µM), 0.617 with RAF265 (0.3162 µM) and 0.639 with RAF265 (1 µM).
In the case of NCI-H2126, the relative viability worked out at 1.07 with IPA-3 (0.2 µM); 0.974 with IPA-3 (0.6325 µM); 0.976 with IPA-3 (2 µM); 0.995 in the assay with IPA-3 (6.325 µM); 1.11 with IPA-3 (20 µM); 1.02 with Doramapimod (0.02 µM). Further, the relative viability with Doramapimod (0.06325 µM) came to 1.02; in the assay with Doramapimod (0.2 µM) it was 0.973; with Doramapimod (0.6325 µM), 1.03; in the assay with Doramapimod (2 µM), 0.967; with RAF265 (0.01 µM), 1.04; with RAF265 (0.03162 µM), 0.949. Further, the relative viability with RAF265 (0.1 µM) stood at 0.951; with RAF265 (0.3162 µM), 0.855; in the assay with RAF265 (1 µM), 0.72.
Take NCI-H2170: the relative viability with IPA-3 (0.2 µM) came out at 1.08; with IPA-3 (0.6325 µM) it was 1.01; with IPA-3 (2 µM), 0.999; with IPA-3 (6.325 µM), 0.878; in the assay with IPA-3 (20 µM), 0.988; with Doramapimod (0.02 µM), 0.923. Besides, the relative viability came out at 0.98 in the assay with Doramapimod (0.06325 µM); 0.996 with Doramapimod (0.2 µM); 0.972 with Doramapimod (0.6325 µM); 0.943 with Doramapimod (2 µM); 0.957 with RAF265 (0.01 µM); 0.896 with RAF265 (0.03162 µM). Also, the relative viability with RAF265 (0.1 µM) stood at 0.877; with RAF265 (0.3162 µM) it was 0.755; with RAF265 (1 µM) it was 0.716.
With NCI-H2228, the relative viability is 1.44 with IPA-3 (0.2 µM); 0.864 in the assay with IPA-3 (0.6325 µM); 1.04 with IPA-3 (2 µM); 1.05 with IPA-3 (6.325 µM); 1.02 with IPA-3 (20 µM); 1.13 in the assay with Doramapimod (0.02 µM). Besides, the relative viability with Doramapimod (0.06325 µM) is 0.988; with Doramapimod (0.2 µM) it was 1.02; in the assay with Doramapimod (0.6325 µM) it was 1.07; with Doramapimod (2 µM), 0.795; in the assay with RAF265 (0.01 µM), 0.967; in the assay with RAF265 (0.03162 µM), 0.89. For the same cell line, the relative viability with RAF265 (0.1 µM) was determined as 0.926; with RAF265 (0.3162 µM), 0.498; with RAF265 (1 µM), 0.309.
